Values of other authors as cited in paper PMC8637765 (RSC Chemical Biology, 2021).

System: cancer cells

In the case of `O=C(Cc1ccccc1)Nc1nnc(CCSCCc2nnc(NC(=O)Cc3ccccc3)s2)s1` [BPTES, bis-2-(5-phenylacetamido-1,3,4-thiadiazol-2-yl)ethyl sulfide], the “Growth inhibition at the cellular level” value is given as “partial growth inhibition”.
For `O=C(Cc1cccc(OC(F)(F)F)c1)Nc1ccc(CCCCc2nnc(NC(=O)Cc3ccccn3)s2)nn1` [CB-839], the “Growth inhibition at the cellular level” value is given as “partial growth inhibition”.
